# Laboratory results taken from US4031243A, “2-(4-Isobutyl phenyl)butyric acid, salts thereof, and pharmaceutical compositions containing the same” (priority 1975, dated 1977).
# Tests used:
# [1] = Analgesic activity: Hot-plate test; type: in vivo; settings: for Reaction time Half ± SEM: control 103.3 ± 7.9
# [2] = Analgesic activity: Tail pinch test in the mouse; type: in vivo; settings: for ED50: Mus musculus; for Animals Not protected, TOTALS / Animals Protected, TOTALS: all doses (60-240 mg/kg)
# Text: Analgesic activity: Tail pinch test in the mouse Described by F. Haffner in Deutsch. med. […] ED50 in this test represents the effective dose in milligrams per kilogram of body weight that is required to increase the reaction time by a factor of at least 3 over the reaction time of the same animal before the test substance had been administered.
# gastric lining = assay: General statements on toxicity, gastric tolerance and activity; settings: capsule, 100 to 300 milligrams, with talcum and magnesium stearate
# [3] = Dissolution of capsule in the stomach (statement); type: physicochemical; settings: 100 to 300 milligrams, with talcum and magnesium stearate
# [4] = system: edema produced by administration of carageenin; assay: animal or person; type: in vivo, rat; parameters: Increment of Edema ± SEM: unit not given here; settings: for ED50: Rattus norvegicus, lineal regression; for "+" animals, printed in place of increment of edema: rat, in vivo
# Text: Antiinflammatory activity: Acute rat paw edema test Described by C. H. Winter, E. A. Risley and G. W. Nuss in a paper entitled "[…]-induced edema in hind paw of the rat as an assay for antiinflammatory drugs", published in Proc. Soc. Exp. Biol. Med., volume 111, page 544 (1962). ED50 in this test represents the effective dose in milligrams per kilogram of body weight that is required to inhibit edema produced by administration of carageenin to the rat.
# granulation tissue = assay: Antiinflammatory activity: Formation of granulation tissue in the rat; type: in vivo; settings: oral; for ED50: Rattus norvegicus, 50% inhibition of granulation tissue, lineal regression; for Weight of granulated tissue ± SEM: control 198 ± 3.63, in mg (unit assumed)
# Text: Antiinflammatory activity: Formation of granulation tissue in the rat
# Described by N. Pisanti, G. Volterra and A. Meli, in a paper entitled "Pharmacological data on a new antiinflammatory agent", published in Il Farmaco(Ed. Scientifica) vol. 38, page 51 (1973).
# ED50 in this test represents the effective dose in milligrams per kilogram of body weight that is required to inhibit by an increment of 50% the formulation of granulation tissue in the rat.
# Ulcerogenic assay = type: in vivo, rat; settings: rat, in vivo; dose which produces 50% of the maximum possible score points in one group of rats; lineal regression; read-out: UD50 (the source's name)
# Text: (§1) Described by S. Wong, J. F. Gardocki and T. P. Pruss in J. Pharm. Exper.
# (§2) UD50 represents the dose in milligrams per kilogram of body weight that is based upon a point scale as follows:
# (§3) 3 -- ulceration with craters
# (§4) U.S. 50 Half ulcerogenic dose -- dose which produces 50% of the
# (§5) maximum possible score points in one group of rats.
# mucosa = assay: Ulcerogenic assay; type: in vivo, rat; settings: 20 rats, scale 0 no ulcers to 3 ulceration with craters
# Text: as §1, §2, §3, §4, §5
# [5] = 144 h, Table 2, oral, administration 6 days
# [6] = Table 1, oral, 120 mg/kg, control 14.80 ± 0.94
# [7] = Table 1, oral, 180 mg/kg, control 14.80 ± 0.94
# [8] = Table 1, oral, 240 mg/kg, control 14.80 ± 0.94
# [9] = Table 2, oral, 120 mg/kg, administration 6 days
# [10] = Table 2, oral, 120 mg/kg, administration 6 days, control 15.35 ± 0.31
# [11] = Table 2, oral, 180 mg/kg, administration 6 days
# [12] = Table 2, oral, 180 mg/kg, administration 6 days, control 15.35 ± 0.31
# [13] = Table 2, oral, 240 mg/kg, administration 6 days
# [14] = Table 2, oral, 240 mg/kg, administration 6 days, control 15.35 ± 0.31
# [15] = Table 3, I.P., 120 mg/kg, control 12.50 ± 1.66
smiles,measurement,setting,value
"CC(=O)Oc1ccccc1C(=O)O [Aspirin, reference compound]",% Increase of Reaction time,"[1]; oral, 120 mg/kg",22.7%
same,Reaction time Half ± SEM,"[1]; oral, 120 mg/kg",126.8 ± 13.7 s
same,% Increase of Reaction time,"[1]; oral, 180 mg/kg",57.4%
same,Reaction time Half ± SEM,"[1]; oral, 180 mg/kg",162.6 ± 8.0 s
same,% Increase of Reaction time,"[1]; oral, 240 mg/kg",69.5%
same,Reaction time Half ± SEM,"[1]; oral, 240 mg/kg",175.1 ± 5.9 s
same,ED50,[1]; po,173 mg/kg
same,ED50,[2]; po,115 mg/kg
same,% Protection,"[2]; oral, 60 mg/kg",13.3%
same,Animals Not protected,"[2]; oral, 60 mg/kg",13
same,Animals Protected,"[2]; oral, 60 mg/kg",2
same,% Protection,"[2]; oral, 120 mg/kg",53.3%
same,Animals Not protected,"[2]; oral, 120 mg/kg",7
same,Animals Protected,"[2]; oral, 120 mg/kg",8
same,% Protection,"[2]; oral, 180 mg/kg",73.3%
same,Animals Not protected,"[2]; oral, 180 mg/kg",4
same,Animals Protected,"[2]; oral, 180 mg/kg",11
same,% Protection,"[2]; oral, 240 mg/kg",93.3%
same,Animals Not protected,"[2]; oral, 240 mg/kg",1
same,Animals Protected,"[2]; oral, 240 mg/kg",14
same,"Animals Not protected, TOTALS",[2]; oral,25
same,"Animals Protected, TOTALS",[2]; oral,35
CCC(C(=O)[O-])c1ccc(CC(C)C)cc1.[Na+] (centres unmarked),gastric upset or irritation,gastric lining,without producing a gastric upset or irritation
same,dissolution in the stomach,[3],dissolves well in the stomach
"CCCCC1C(=O)N(c2ccccc2)N(c2ccccc2)C1=O [Phenylbutazone, reference compound]",ED50,[4]; [5],177 mg/kg
same,ED50,"[4]; Table 1, oral",77.1 mg/kg
same,% Inhibition,"[4]; Table 1, oral, 120 mg/kg",56.08%
same,Increment of Edema ± SEM,[4]; [6],6.50 ± 1.02
same,% Inhibition,"[4]; Table 1, oral, 180 mg/kg",64.86%
same,Increment of Edema ± SEM,[4]; [7],5.20 ± 0.41
same,% Inhibition,"[4]; Table 1, oral, 240 mg/kg",70.94%
same,Increment of Edema ± SEM,[4]; [8],4.30 ± 0.89
same,% Inhibition,[4]; [9],34.85%
same,Increment of Edema ± SEM,[4]; [10],10.00 ± 0.73
same,% Inhibition,[4]; [11],42.28%
same,Increment of Edema ± SEM,[4]; [12],8.86 ± 0.36
same,% Inhibition,[4]; [13],69.64%
same,Increment of Edema ± SEM,[4]; [14],4.66 ± 0.54
same,% Inhibition,"[4]; Table 3, I.P., 120 mg/kg",45.36%
same,Increment of Edema ± SEM,[4]; [15],6.83 ± 0.94
same,"""+"" animals, printed in place of increment of edema","[4]; ip, 240 mg/kg",+ four animals
same,"""+"" animals, printed in place of increment of edema","[4]; ip, 360 mg/kg",+ five animals
same,ED50,granulation tissue,264 mg/kg
same,% Inhibition,granulation tissue; 120 mg/kg,15.65%
same,Weight of granulated tissue ± SEM,granulation tissue; 120 mg/kg,167 ± 8.25
same,% Inhibition,granulation tissue; 180 mg/kg,35.35%
same,% Inhibition,granulation tissue; 240 mg/kg,44.94%
same,Weight of granulated tissue ± SEM,granulation tissue; 240 mg/kg,109 ± 8.77
same,TD50,Ulcerogenic assay,226 mg/kg
same,Point score,mucosa; 60 mg/kg/day,8
same,Point score,mucosa; 120 mg/kg/day,17
same,Point score,mucosa; 240 mg/kg/day,32
"CCC(C(=O)O)c1ccc(CC(C)C)cc1 (centres unmarked) [2-(4-Isobutylphenyl)butyric acid, 2-(4-isobutylphenyl) butyric acid]",ED50,[4]; [5],204 mg/kg
same,ED50,"[4]; ip, Table 3, I.P.",133 mg/kg
same,ED50,"[4]; Table 1, oral",116 mg/kg
same,% Inhibition,"[4]; Table 1, oral, 120 mg/kg",51.01%
same,Increment of Edema ± SEM,[4]; [6],7.25 ± 1.00
same,% Inhibition,"[4]; Table 1, oral, 180 mg/kg",58.10%
same,Increment of Edema ± SEM,[4]; [7],6.20 ± 0.84
same,% Inhibition,"[4]; Table 1, oral, 240 mg/kg",66.21%
same,Increment of Edema ± SEM,[4]; [8],5.00 ± 0.97
same,% Inhibition,[4]; [9],24.03%
same,Increment of Edema ± SEM,[4]; [10],11.66 ± 0.67
same,% Inhibition,[4]; [11],40.97%
same,Increment of Edema ± SEM,[4]; [12],9.06 ± 0.39
same,% Inhibition,[4]; [13],60.06%
same,Increment of Edema ± SEM,[4]; [14],6.13 ± 0.35
same,% Inhibition,"[4]; Table 3, I.P., 120 mg/kg",49.36%
same,Increment of Edema ± SEM,[4]; [15],6.33 ± 0.88
same,% Inhibition,"[4]; Table 3, I.P., 240 mg/kg",64.00%
same,Increment of Edema ± SEM,"[4]; Table 3, I.P., 240 mg/kg, control 12.50 ± 1.66",4.50 ± 1.05
same,% Inhibition,"[4]; Table 3, I.P., 360 mg/kg",92.96%
same,Increment of Edema ± SEM,"[4]; Table 3, I.P., 360 mg/kg, control 12.50 ± 1.66",0.88 ± 0.26
same,ED50,granulation tissue,252 mg/kg
same,% Inhibition,granulation tissue; 120 mg/kg,11.11%
same,Weight of granulated tissue ± SEM,granulation tissue; 120 mg/kg,176 ± 13.09
same,% Inhibition,granulation tissue; 180 mg/kg,34.34%
same,Weight of granulated tissue ± SEM,granulation tissue; 180 mg/kg,130 ± 8.54
same,% Inhibition,granulation tissue; 240 mg/kg,46.46%
same,Weight of granulated tissue ± SEM,granulation tissue; 240 mg/kg,106 ± 9.97
same,% Increase of Reaction time,"[1]; oral, 60 mg/kg",7.0%
same,Reaction time Half ± SEM,"[1]; oral, 60 mg/kg",110.6 ± 7.0 s
same,% Increase of Reaction time,"[1]; oral, 120 mg/kg",35.0%
same,Reaction time Half ± SEM,"[1]; oral, 120 mg/kg",139.5 ± 10.7 s
same,% Increase of Reaction time,"[1]; oral, 180 mg/kg",37.0%
same,Reaction time Half ± SEM,"[1]; oral, 180 mg/kg",142.3 ± 7.6 s
same,% Increase of Reaction time,"[1]; oral, 240 mg/kg",78.4%
same,Reaction time Half ± SEM,"[1]; oral, 240 mg/kg",184.3 ± 13.1 s
same,ED50,"[1]; oral, increase by 50% of reaction time, lineal regression, read-out: ED50",162 mg/kg
same,ED50,"[2]; oral, reaction time increased by factor of at least 3, lineal regression, read-out: ED50",118 mg/kg
same,% Protection,"[2]; oral, 60 mg/kg",15%
same,Animals Not protected,"[2]; oral, 60 mg/kg",17
same,Animals Protected,"[2]; oral, 60 mg/kg",3
same,% Protection,"[2]; oral, 120 mg/kg",50%
same,Animals Not protected,"[2]; oral, 120 mg/kg",10
same,Animals Protected,"[2]; oral, 120 mg/kg",10
same,% Protection,"[2]; oral, 180 mg/kg",70%
same,Animals Not protected,"[2]; oral, 180 mg/kg",6
same,Animals Protected,"[2]; oral, 180 mg/kg",14
same,% Protection,"[2]; oral, 240 mg/kg",90%
same,Animals Not protected,"[2]; oral, 240 mg/kg",2
same,Animals Protected,"[2]; oral, 240 mg/kg",18
same,"Animals Not protected, TOTALS",[2]; oral,35
same,"Animals Protected, TOTALS",[2]; oral,45
same,Point score,mucosa; 60 mg/kg/day,2
same,Point score,mucosa; 120 mg/kg/day,7
same,Point score,mucosa; 240 mg/kg/day,14
